Test results taken from patent US20260108484A1, “TREATMENT OF NEUROPATHIC PAIN IN CANINES” ([…] COMPANY, priority 2022, published 2026).

Experiments:
[1] = tested on: dogs with CLM/SM (neuropathic pain); test: Pilot study and validation of the Questionnaire (CHASE score) in CLM/SM dogs; assay type: in vivo, dog
Experimental: Please think about how your dog has behaved over the past week and use the scale to tell us how well the phrases describe your dog or what he/she is doing.
Summary values for untransformed and unweighted scores across the five final questions are presented below.
Intervention by a board-certified neurologist and prescription of pregabalin at 5-10 mg/kg twice daily relieved clinical signs and reduced CHASE scores to within the normal range, indicating responsiveness of the questionnaire to standard-of-care medical treatment. […] Using the Questionnaire to solicit owner feedback on disease severity and its impacts on affect and quality of life in this manner, owners and the veterinary neurologist concurred on treatment effects in this 100% of cases. This is to be expected given the potency of pregabalin in the treatment of neuropathic pain; however, no owner assessment tool has ever been reported to detect said effects so sensitively. For example, in a randomized controlled study by Thofner et al. (2020), even the very high dose range of 13 to 19 mg/kg pregabalin yielded concurrence between veterinarian and owner in only 52% of assessments of dogs with CLM/SM.

[2] = tested on: CKCS symptomatic for CLM/SM; conditions: cited from earlier work
[3] = tested on: dogs with CLM/SM; conditions: affected dogs, placebo-controlled treatment trial; cited from earlier work
[4] = tested on: voltage-gated calcium channel α2δ subunits; conditions: cited from earlier work

For `CC(C)C[C@H](CN)CC(=O)O` [pregabalin], the “treated dogs exhibiting improvements of at least 5 points” value ([1]; 8 treated dogs, pregabalin 5-10 mg/kg twice daily) was 100%, the “Questionnaire (CHASE) score, Mean” value ([1]; Treated CLM/SM dogs, n=8, untransformed and unweighted scores across the five final questions, pregabalin 5-10 mg/kg twice daily) was 4.4 and the “improvements in symptom severity on the Questionnaire” value ([1]; each of the 8 treated dogs, pregabalin 5-10 mg/kg twice daily) was “at least 5 points”. The effect size ([1]; equivalent to improvement of at least 5 points on the Questionnaire) was at least 1.04, the effect size ([2]; CKCS symptomatic for CLM/SM, crossover placebo-controlled) was 0.45 and the “numerical rating scale (NRS) mean score during treatment” value ([2]; liquid formulation of pregabalin, placebo phase 4.24) was 3.17 units. The phantom scratching [3] was “effectively reduce phantom scratching” and the “potency and binding affinity compared with gabapentin” value [4] was “better potency and binding affinity than gabapentin”.
